Experimental data reported in patent US4585755A, “Cyclic and bridged cyclic somatostatin analogs useful as local anti-inflammatory agents” (Merck & Co., Inc., priority 1985, dated 1986).
Residues, ends and D or L forms follow the SMILES beside them.

Experiments:
[1] = test system: growth hormone, insulin and glucogen secretion; experiment: Potency relative to somatostatin (SRIF), based on inhibition of hormone secretion; conditions: somatostatin (SRIF) potency assigned a value of 1, based upon inhibition of growth hormone
Experimental: Following the same procedure as described above for Assay 1, additional compounds were tested for local; i.e., topical, anti-inflammatory activity. […] In Table III, the potency of each compound tested relative to that of somatostatin is also shown, the somatostatin (SRIF) potency being assigned a value of 1 and based upon its inhibition of growth hormone, insulin and glucogen secretion.

[2] = test system: cellular proliferation (granuloma); experiment: Assay 1: pellet granuloma assay, compound applied locally to implanted pellets; format: in vivo, rats (Charles River-CD); conditions: for Body Wt. Change / Net weight of Pellets: local on pellet, male rats, 7 days; for Net weight of Pellets: ± S.E. of mean, control 39 ± 2.7
Experimental: The assay method employed to test the Formula I, II and III compounds as local anti-inflammatory agents is a modification of the method described by S. L. Steelman, et al. [Steroids, 1, 163 (1963)] as follows:
(§1) Male rats (Charles River-CD) of about 150-160 grams in weight were subcutaneously implanted in the abdominal area with two pellets each. Five animals were used per group. The pellets used were preweighed and all used in a given assay were ±1 mg from one another. The compounds were dissolved in absolute ethanol and the indicated dose applied to each pellet in 0.2 ml. The alcohol was removed in vacuo overnight. Just prior to implantation, each pellet was moistened with 0.2 ml of 0.9% saline containing 1 mg each of penicillin and streptomycin. After seven days, the pellets were dissected out together with adhering granulomatous tissue. After drying in a vacuum oven overnight at 60°-65° C., the pellets were weighed. The difference in weight between the original pellet weight and the implanted pellet weight was used as a measure of cellular proliferation (granuloma). The lower the net weight, the more anti-inflammatory activity.
The results obtained following the Assay Method described above are shown below in Table I wherein hydrocortisone was used as a positive control.

[3] = test system: cellular proliferation (granuloma); experiment: Assay 2: pellet granuloma assay, compounds administered subcutaneously as saline injections; format: in vivo, rats (Charles River-CD); conditions: for Avg. Granuloma wt. / Avg. Adrenal wt. / Avg. Thymus wt. / Avg. body wt change: rats, 7 days, ± S.E. of mean; for Avg. Granuloma wt.: control 28 ± 3; for Avg. Adrenal wt.: control 44 ± 1; for Avg. Thymus wt.: control 552 ± 45; for Avg. body wt change: control +35 ± 2
Experimental: as §1
Following the procedure described above for Assay 1, additional tests were conducted except that the compounds were administered subcutaneously as saline injections. The tests were carried out on six animals per group and the results obtained are shown below in Table II.

[4] = daily dose 200 mcg subcutaneous

C[C@@H](O)[C@@H]1NC(=O)[C@H](CCCCN)NC(=O)[C@@H](Cc2c[nH]c3ccccc23)NC(=O)[C@H](Cc2ccccc2)NC(=O)[C@@H]2CCCN2C(=O)[C@H](Cc2ccccc2)NC1=O [13/II, Cyclo-(Pro-Phe-D-Trp-Lys-Thr-Phe)] (HELM PEPTIDE1{P.F.[dW].K.T.F}$PEPTIDE1,PEPTIDE1,1:R1-6:R2$$$V2.0)
Potency Relative to Samatostatin (SRIF) [1]: 6

C[C@]12CCC(=O)C=C1CC[C@@H]1[C@@H]2[C@@H](O)C[C@@]2(C)[C@H]1CC[C@]2(O)C(=O)CO [Hydrocortisone, reference compound]
Body Wt. Change ([2]; 200 mcg./pellet): +44 gm
Net weight of Pellets ([2]; 200 mcg./pellet): 34 ± 2.5 mg
Body Wt. Change ([2]; 1000 mcg./pellet): +41 gm
Net weight of Pellets ([2]; 1000 mcg./pellet): 29 ± 2.1 mg
activity of positive control (in words) ([3]; administered subcutaneously): typical activity
Avg. Granuloma wt. ([3]; daily dose 1.0 mg subcutaneous): 22 ± 1 mg
Avg. Adrenal wt. ([3]; daily dose 1.0 mg subcutaneous): 36 ± 3 mg
Avg. Thymus wt. ([3]; daily dose 1.0 mg subcutaneous): 201 ± 20 mg
Avg. body wt change ([3]; daily dose 1.0 mg subcutaneous): +22 ± 3 gm
Avg. Granuloma wt. ([3]; daily dose 4.0 mg subcutaneous): 19 ± 1 mg
Avg. Adrenal wt. ([3]; daily dose 4.0 mg subcutaneous): 23 ± 1 mg
Avg. Thymus wt. ([3]; daily dose 4.0 mg subcutaneous): 41 ± 3 mg
Avg. body wt change ([3]; daily dose 4.0 mg subcutaneous): -17 ± 2 gm

C[C@@H]1NC(=O)[C@H](CO)NC(=O)[C@H](CCCCN)NC(=O)[C@@H](Cc2c[nH]c3ccccc23)NC(=O)[C@H](Cc2c[nH]cn2)NC(=O)[C@H](Cc2ccccc2)N(C)C1=O [11/I, Cyclo-(Ser-Ala-N-Me-Phe-His-D-Trp-Lys)] (HELM PEPTIDE1{A.[meF].H.[dW].K.S}$PEPTIDE1,PEPTIDE1,1:R1-6:R2$$$V2.0)
Potency Relative to Samatostatin (SRIF) [1]: 200

CC(C)[C@@H]1NC(=O)[C@H](CCCCN)NC(=O)[C@@H](Cc2c[nH]c3ccccc23)NC(=O)[C@H](Cc2ccc(O)cc2)NC(=O)[C@H](C)N(C)C(=O)[C@H](Cc2ccccc2)NC1=O [Compound 8 of Formula I, Cyclo-(N-Me-Ala-Tyr-D-Trp-Lys-Val-Phe)]
Body Wt. Change ([2]; 10 mcg./pellet): +43 gm
Net weight of Pellets ([2]; 10 mcg./pellet): 39 ± 2.9 mg
Body Wt. Change ([2]; 100 mcg./pellet): +40 gm
Net weight of Pellets ([2]; 100 mcg./pellet): 30 ± 2.4 mg
anti-inflammatory activity (in words) ([2]; administered locally, i.e., topically): clearly exhibits anti-inflammatory activity
local anti-inflammatory activity (in words) ([2]; doses of 100-200 micrograms per pellet): significant activity
effect on adrenal weight (in words) ([3]; administered subcutaneously): slight decrease in the adrenal weight
anti-inflammatory activity (in words) ([3]; administered subcutaneously at a total dose of 1.4 mg (0.2 mg×7)): no anti-inflammatory activity
anti-inflammatory activity (in words) ([3]; administered systematically, i.e., subcutaneously): no anti-inflammatory activity
Avg. Granuloma wt. ([3]; daily dose 50 mcg subcutaneous): 27 ± 3 mg
Avg. Adrenal wt. ([3]; daily dose 50 mcg subcutaneous): 43 ± 2 mg
Avg. Thymus wt. ([3]; daily dose 50 mcg subcutaneous): 576 ± 14 mg
Avg. body wt change ([3]; daily dose 50 mcg subcutaneous): +38 ± 3 gm
Avg. Granuloma wt. [3, 4]: 29 ± 2 mg
Avg. Adrenal wt. [3, 4]: 36 ± 2 mg
Avg. Thymus wt. [3, 4]: 571 ± 26 mg
Avg. body wt change [3, 4]: +35 ± 2 gm
Potency Relative to Samatostatin (SRIF) [1]: 50-100

CC(C)[C@@H]1NC(=O)[C@H](CCCCN)NC(=O)[C@@H](Cc2c[nH]c3ccccc23)NC(=O)[C@H](Cc2ccc(O)cc2)NC(=O)[C@H](C)N(C)C(=O)[C@H](Cc2c[nH]c3ccccc23)NC1=O [9/I, Cyclo-(N-Me-Ala-Tyr-D-Trp-Lys-Val-Trp)] (HELM PEPTIDE1{K.V.W.[meA].Y.[dW]}$PEPTIDE1,PEPTIDE1,1:R1-6:R2$$$V2.0)
Potency Relative to Samatostatin (SRIF) [1]: 20-35

CC(C)[C@@H]1NC(=O)[C@H](CCCCN)NC(=O)[C@H](Cc2c[nH]c3ccccc23)NC(=O)[C@H](Cc2ccc(O)cc2)NC(=O)[C@H](C)N(C)C(=O)[C@H](Cc2ccccc2)NC1=O [10/I, Cyclo-(N-Me-Ala-Tyr-L-Trp-Lys-Val-Phe)]
Potency Relative to Samatostatin (SRIF) [1]: 50
